According to patent publication US9910050B2, “Mutant smoothened and methods of using the same” (Curis, Inc., priority 2009, dated 2018):
“Also recorded” adds a separate entry of the source.

What was measured:
[1] = target: T1, SMO-D473H (Homo sapiens, UniProt Q99835, D473H); assay: Gli-luciferase reporter assay in C3H10T½ cells transfected with SMO-D473H; format: cell-based; details: for activity against SMO-D473H, inhibition of Gli-luciferase activity: screen at 1 μM compound
T1 construct: expressed in transfected cells; host or cells: C3H10T½ cells (reporter assay)
T1 sequence (Q99835 28-787 D473H): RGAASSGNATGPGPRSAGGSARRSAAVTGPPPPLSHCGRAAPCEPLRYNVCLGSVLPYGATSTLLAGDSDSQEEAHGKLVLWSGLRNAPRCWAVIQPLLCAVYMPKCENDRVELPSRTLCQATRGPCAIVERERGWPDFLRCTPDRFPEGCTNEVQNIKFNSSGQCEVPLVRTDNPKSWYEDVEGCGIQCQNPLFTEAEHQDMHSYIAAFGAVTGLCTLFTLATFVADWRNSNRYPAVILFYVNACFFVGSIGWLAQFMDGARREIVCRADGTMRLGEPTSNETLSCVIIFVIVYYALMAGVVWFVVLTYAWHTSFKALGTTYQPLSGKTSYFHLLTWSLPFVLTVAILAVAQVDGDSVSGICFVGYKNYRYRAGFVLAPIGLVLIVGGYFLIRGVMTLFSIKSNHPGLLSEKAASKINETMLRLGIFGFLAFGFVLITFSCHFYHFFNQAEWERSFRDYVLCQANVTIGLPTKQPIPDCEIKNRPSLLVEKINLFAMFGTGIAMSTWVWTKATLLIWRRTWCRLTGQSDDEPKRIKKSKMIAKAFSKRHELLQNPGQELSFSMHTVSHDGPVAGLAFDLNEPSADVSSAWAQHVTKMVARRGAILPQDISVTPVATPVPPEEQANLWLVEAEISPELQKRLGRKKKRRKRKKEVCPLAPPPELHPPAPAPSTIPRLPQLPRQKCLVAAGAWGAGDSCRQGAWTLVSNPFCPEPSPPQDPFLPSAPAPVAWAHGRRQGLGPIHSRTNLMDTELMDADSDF
Description: For the PTCH1 inhibition experiments, cells were transfected with an additional 200 ng of DNA containing varying ratios of PTCH1 to eGFP expression constructs. For the NF-κB and SV40 reporter assays, Gli-BS was replaced with either pGL4.32 or pGL3-Promoter. Six hours later, cells were collected by trypsin treatment and each well was redistributed over four wells of a 12-well plate. The FBS content of the culture medium was reduced to 0.5% the following morning to induce formation of primary cilia, and small molecule Hh inhibitors were added at indicated concentrations. […] Values were divided by Renilla luciferase activities to normalize for transfection efficiency and are shown as the mean of three separate experiments±1 standard deviation.

[2] = Mouse pharmacokinetic study; format: in vivo; details: for pharmacokinetic properties in mice: oral
Description: Mouse pharmacokinetic studies. […] Briefly, 24 female CD-1 mice weighing 25 to 33 g at study initiation were given a single oral 100 mg kg−1 dose of either compound 4 or 5 as a suspension in 0.5% methylcellulose with 0.2% Tween-80 (MCT). Blood samples (n=3 mice per time point) were collected in tubes containing EDTA as an an anticoagulant by terminal cardiac puncture under isoflurane at the following time points: 5, 15 and 30 min; and 1, 3, 6, 9 and 24 h post-dose. Blood samples were centrifuged to collect plasma, which was stored at −80° C. until drug concentrations were quantified by LC/MS/MS.

[3] = target: T2, SMO-WT (Homo sapiens, UniProt Q99835); assay: Gli-luciferase reporter assay in C3H10T½ cells transfected with SMO-WT; format: cell-based
T2 construct: expressed in transfected cells; host or cells: C3H10T½ cells (reporter assay)
T2 sequence (Q99835 28-787): as the sequence (Q99835 28-787 D473H) above, with H446D counted along it

[4] = target: T3, endogenous SMO (Mus musculus, UniProt P56726); assay: Inhibition of endogenous SMO following stimulation by Hh ligand; format: cell-based; details: data not shown
T3 construct: endogenous in cells
T3 sequence (P56726 33-793): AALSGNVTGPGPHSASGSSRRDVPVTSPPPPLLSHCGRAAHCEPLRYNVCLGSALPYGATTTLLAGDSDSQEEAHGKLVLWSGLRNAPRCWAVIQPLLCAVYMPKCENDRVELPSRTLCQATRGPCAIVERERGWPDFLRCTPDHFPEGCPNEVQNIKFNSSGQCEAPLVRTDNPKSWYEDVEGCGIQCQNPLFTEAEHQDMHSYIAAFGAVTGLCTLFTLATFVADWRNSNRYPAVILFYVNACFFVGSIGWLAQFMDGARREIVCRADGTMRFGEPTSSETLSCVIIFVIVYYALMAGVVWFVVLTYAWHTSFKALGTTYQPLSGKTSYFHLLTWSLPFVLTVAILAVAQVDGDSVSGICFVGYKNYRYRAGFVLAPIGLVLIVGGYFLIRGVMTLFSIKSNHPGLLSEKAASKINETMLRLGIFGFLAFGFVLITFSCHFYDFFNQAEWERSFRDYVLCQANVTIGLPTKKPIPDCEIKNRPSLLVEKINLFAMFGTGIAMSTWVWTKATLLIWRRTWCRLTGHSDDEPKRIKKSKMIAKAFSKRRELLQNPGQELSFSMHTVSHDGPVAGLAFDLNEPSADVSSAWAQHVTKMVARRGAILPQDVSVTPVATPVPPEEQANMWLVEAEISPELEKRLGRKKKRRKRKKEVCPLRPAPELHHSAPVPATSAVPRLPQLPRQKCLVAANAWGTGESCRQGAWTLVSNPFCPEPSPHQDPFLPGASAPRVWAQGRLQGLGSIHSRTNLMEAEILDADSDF

[5] = system: Smo localization to the primary cilium in S12 cells; assay: Smo immunostaining, ciliary localization in S12 cells; details: 16 h; for effect on Smo localization compared with GDC-0449: absence or presence of Shh, 1 μM; for ciliary accumulation of Smo in the absence of Hh stimulation: no Shh
[6] = system: Gli1 mRNA in SG274 tumors; assay: Gli1 mRNA levels by qRT-PCR in SG274 tumors; format: in vivo, mouse; details: compound 5 100 mg kg−1 once daily, collected 6 hours after last treatment
[7] = system: SG274 allografts (Smo-D477G); assay: Tumor growth of subcutaneous SG274 MB allografts; format: in vivo, mouse; details: compound 5 100 mg kg−1 once daily, oral
Description: (§1) Drug treatment of animals with MB allografts. Tumor-hearing animals were generated via serial subcutaneous propagation of murine Ptch+/−; p53−/− MB tumor lines (Wetmore C. et al. (2001) Cancer Res. 61:513-516). Subcutaneous tumors 1500-2000 mm3 were excised from donor mice under aseptic conditions, minced in High Glucose DMEM by repeated slicing and chopping with two #10 scalpels and passed through a cell dissociation sieve (Sigma, CD1-1KT). The resulting single cell suspension was washed twice in High Glucose DMEM and filtered through a 70 μm nylon cell strainer (BD Falcon) before counting in a Vi-CELL cell viability analyzer (Beckman Coulter). Approximately 2.5-4×10^6 live cells in a 100 μl volume were injected subcutaneously into the right lateral thorax of 7 to 10-week-old female CD-1 nude mice (CRL). Tumor dimensions were measured with Ultra Cal1 IV calipers (Fred V. Fowler Company Inc., Newton, Mass.) and tumor volume was calculated using the formula v=0.5×a×b2, where a and b are the […] perpendicular tumor diameters, respectively. When tumors reached 125-350 mm^3 in volume, animals were separated into treatment groups with similarly sized tumors and drug administration was initiated. […]

[8] = system: pAKT and pS6 (PI3K pathway); assay: Immunoblot of activated AKT and S6 in MB allograft tumors; format: in vivo, mouse; details: 6-hour treatment with GDC-0941
Description: Immunoblotting. Frozen tumor samples were lysed in M-PER Mammalian Protein Extraction Reagent (Pierce) containing protease and phosphatase inhibitors. Lysates were separated on 4-12% Bis-Tris gels and proteins were transferred onto PVDF membranes with an iBlot (Invitrogen). Blots were blocked and incubated overnight at 4° C. with 5% milk containing one of the following primary antibodies; anti-cyclin D1 (Cell Signaling, #2922), anti-phospho(Ser473)-AKT (Cell Signaling, #4060), anti-total AKT (Cell Signaling #9272), anti-Gli2 (Cho A. et al. (2008) Dev. Biol. 321:27-39), or anti-actin (Santa Cruz Biotechnology, sc-47778), followed by a 1 h incubation at RT with appropriate HRP-conjugated secondary antibodies. Antigen-antibody interactions were visualized with SuperSignal West Dura Extended Duration Substrate (Pierce).

[9] = system: control and GDC-0449-resistant MB allografts; assay: Tumor growth of control and GDC-0449-resistant MB allografts, PI3K inhibitor study; format: in vivo, mouse; details: GDC-0941 150 mg kg−1 once daily, oral, SG102, SG152, SG274
Description: as §1

[10] = system: human hepatocytes; assay: Metabolism by human hepatocytes; format: in vitro ADME; details: unpublished observation
[11] = system: Smo localization to the primary cilium; details: literature reports; cited from earlier work
[12] = 5 μM for cyclopamine, 1 μM for the others

In the case of `CS(=O)(=O)c1ccc(C(=O)Nc2ccc(Cl)c(NC(=O)c3ccccc3)c2)c(Cl)c1` [Compound 3], the “activity against SMO-D473H, inhibition of Gli-luciferase activity” value (“activity against SMO-D473H, inhibition” for short) [1] is reported as “measurable activity”.
For `O=C(Nc1ccc(Cl)c(NC(=O)c2cccc(Cl)c2)c1)c1ccc(N2CCC(O)CC2)nc1` [Compound 4], the “activity against SMO-D473H, inhibition” value [1] was “improved potencies” and the “pharmacokinetic properties in mice” value [2] was “cleared much more rapidly from the blood stream than compound 5”.
In the case of `C[C@@H]1CN(c2ccc(C(=O)Nc3ccc(Cl)c(NC(=O)c4cccc(Cl)c4)c3)cn2)C[C@H](C)N1` [Compound 5], the “activity against wild type SMO, Gli-luciferase reporter” value ([3]; SMO-WT overexpression in C3H10T½ cells) is reported as “less potent against SMO-WT than GDC-0449”, the IC50 ([3]; SMO-WT transfected C3H10T½ cells, read-out: IC50, inhibition of GLI-luciferase reporter activity) is reported as 0.3 µM and the “less compound sufficient to inhibit endogenous SMO than in SMO overexpression assay” value [4] is reported as “approximately 10 fold”. For the same compound, the IC50 ([1]; SMO-D473H transfected C3H10T½ cells, read-out: IC50, inhibition of Gli-luciferase reporter activity) was 0.7 µM, the “inhibition of SMO-D473H, Gli-luciferase reporter dose response” value ([1]; dose response) was “can inhibit the drug-resistant mutant” and the “activity against SMO-D473H, inhibition” value [1] was “improved potencies”. The half-life ([2]; female, CD-1, mouse, mice, single oral 100 mg kg−1 dose, plasma, read-out: terminal half-life (t1/2) (converted)) was about 22 h, the “pharmacokinetic properties in mice” value [2] was “good pharmacokinetic properties in mice” and the “effect on Smo localization compared with GDC-0449” value [5] was “very similar effects on Smo localization”. The “Gli1 mRNA levels in SG274 tumors” value [6] was “downregulation in Gli1 mRNA levels” and the “tumor growth of SG274 allografts” value [7] was “not only stopped growing but even started to shrink”.
For `CS(=O)(=O)N1CCN(Cc2cc3nc(-c4cccc5[nH]ncc45)nc(N4CCOCC4)c3s2)CC1` [GDC-0941], the “pAKT and pS6 levels in tumors” value [8] was “decreased pAKT and pS6 levels” and the “tumor growth of control and resistant MB allograft models” value [9] was “greatly reduced tumor growth”.
For `CCOc1cc(C(=O)Nc2ccc(Cl)c(-c3nc4ccccc4[nH]3)c2)cc(OCC)c1OCC` [HhAntag], the “activity against SMO-D473H, inhibition” value [1] was “essentially equipment against all SMO alleles”, the “effect on Smo localization compared with GDC-0449” value [5] was “very similar effects on Smo localization” and the “metabolism by human hepatocytes” value [10] was “rapidly metabolized by human hepatocytes”.
With `CNC1CCC(N(Cc2cccc(-c3ccncc3)c2)C(=O)c2sc3ccccc3c2Cl)CC1` (stereo not drawn) [SAG] the “ciliary accumulation of Smo in the absence of Hh stimulation” value (“ciliary accumulation of Smo” for short) [5, 12] was “robust translocation of Smo to the primary odium”.
For `Cc1nn(-c2ccccc2)c(C)c1/C=N/N1CCN(Cc2ccccc2)CC1` [SANT-1], the “Shh and agonist-induced translocation of Smo to the cilium” value [11] is listed as “prevented Shh and agonist-induced translocation of Smo”, the “activity against SMO-D473H, inhibition” value [1] is listed as “partially resistant; also recorded: neither cyclopamine nor SANT-1 can fully inhibit Smo-D473H” and the “Hh-induced Smo translocation to the primary cilium” value ([5]; 200 ng/ml octyl-Shh, 5 μM for cyclopamine, 1 μM for the others) is listed as “prevented Hh-induced Smo translocation”. The “ciliary accumulation of Smo” value [5, 12] was “did not promote ciliary enrichment”.
In the case of `CC1=C2C[C@H]3[C@@H](CC=C4C[C@@H](O)CC[C@@]43C)[C@@H]2CC[C@]12O[C@@H]1C[C@H](C)CN[C@H]1[C@H]2C` [cyclopamine], the “activity against SMO-D473H, inhibition” value [1] is reported as “partially resistant; also recorded: neither cyclopamine nor SANT-1 can fully inhibit Smo-D473H” and the “ciliary accumulation of Smo” value [5, 12] is reported as “robust translocation of Smo to the primary odium”.
With KAAD-cyclopamine the “ciliary accumulation of Smo” value [5, 12] was “partially induced ciliary translation”.
